Here are results for 19 compounds from ChEMBL document CHEMBL1201862, “PubChem BioAssay data set” (2004).

Calls of active or inactive are those of the source. Rule as the data show it, for most assays here: actives have a measured EC50 and inactives only a lower limit.

In one test the target is Cytochrome P450 2C9 (Homo sapiens, UniProt P11712).
The nature of test [1]: Trypanosoma cruzi growth suppression in host cells – NIH3T3 host cells, beta-gal luminescence, confirmation (AID 2044).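 Also: intracellular parasites grown in NIH/3T3 mouse fibroblasts as host cells; luminescent beta-galactosidase reporter signal from transgenic T. cruzi replicating inside host cells; inhibitors lower the luminescence signal.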 In kind it is functional, cell-based.
Test [2] is described as follows: NIH3T3 cell viability loss – ATP luminescence, mouse fibroblasts, counter-screen, dose response (AID 2010).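 Also: cells exposed to compound for about 90 hours before reading.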 Format: functional, cell-based.
The nature of test [3]: Luminescence Cell-Based Dose Response HTS to Identify Activators of Luciferase Translation or Activity in H4 […] Cells. [Related pubchem assays: 1829 (Project Summary), 1814 (Primary HTS)]. In kind it is functional.
The next test has as its system H4. The test can be described thus: Luminescence Cell-Based Dose Response HTS to Identify Activators of 5'UTR Stem-Loop Driven Prion Protein mRNA Translation in H4 Neuroglioblastoma Cells. [Related pubchem assays: 1829 (Project Summary), 1814 (Primary HTS)]. Particulars: Homo sapiens. In kind it is functional.

Cytochrome P450 2C9, sequence (P11712 whole entry): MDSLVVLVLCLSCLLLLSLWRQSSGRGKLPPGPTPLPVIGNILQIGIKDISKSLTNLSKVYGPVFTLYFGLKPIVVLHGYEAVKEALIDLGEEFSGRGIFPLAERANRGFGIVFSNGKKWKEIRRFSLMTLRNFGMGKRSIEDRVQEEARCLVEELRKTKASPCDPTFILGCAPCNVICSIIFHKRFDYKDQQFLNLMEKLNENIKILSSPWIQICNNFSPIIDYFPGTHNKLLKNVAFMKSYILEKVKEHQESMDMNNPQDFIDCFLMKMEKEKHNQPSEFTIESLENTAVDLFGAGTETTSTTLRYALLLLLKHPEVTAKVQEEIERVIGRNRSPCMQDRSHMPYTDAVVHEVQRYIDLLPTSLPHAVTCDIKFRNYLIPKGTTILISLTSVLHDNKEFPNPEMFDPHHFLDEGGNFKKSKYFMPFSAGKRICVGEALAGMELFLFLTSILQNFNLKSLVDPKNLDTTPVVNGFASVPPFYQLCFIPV

As usually defined, the AC50 is the midpoint of the concentration-response curve, whichever way the signal moves. For the compound `CN(C)c1ccc(-c2nccc(Nc3ccc(F)cc3)n2)cc1`, the AC50 on Cytochrome P450 2C9 is 0.631 µM (inconclusive). Usually EC50 stands for the concentration needed to bring the measured effect to its halfway point. On to `COc1ccc(C(=N)NOC(=O)c2c(-c3ccccc3Cl)noc2C)cc1OC`, for which the EC50 was 1.49 µM (active) in test [1] and 10.7 µM (active) in test [2]. With `CC1CCN(CC(=O)Nc2cccc([N+](=O)[O-])c2)CC1`, the half-maximal activity concentration (AC50) on Cytochrome P450 2C9 was 15.8 µM (inconclusive). On the same count and under the same terms, with `S=C(NCc1ccco1)N1CCN(Cc2ccco2)CC1` the figure was 14.1 µM (inconclusive). Take `Cc1ccc(S(=O)(=O)Nc2ccc(N3CCN(C)CC3)nc2)cc1`: the 50% effective concentration (EC50) in test [1] is 1.26 µM (active); in test [2], > 60 µM (not active). Taken in the same sequence, the figures for `COc1ccc(C(CNc2ccc(S(=O)(=O)N3CCCC3)cc2[N+](=O)[O-])N2CCCC2)cc1` (stereo unspecified) were 0.843 µM (active) and 31.8 µM (active).

For the compound `O=C(CCN1C(=O)S/C(=C\C=C\c2ccccc2)C1=O)Nc1ccc(O)cc1`, the EC50 is 0.155 µM (active) in test [3] and 8.5 µM (active) with H4.

For `O=C(c1c[nH]cc1-c1ccccc1)c1cccc2ccccc12`, the concentration for a half-maximal effect (EC50) was 1.93 µM (active) in test [1] and 4.49 µM (active) in test [2].

In the case of `Cc1cccc2nc(-c3ccccc3)nc(N3CCC(O)(c4ccc(Cl)cc4)CC3)c12`, the EC50 is 0.301 µM (active) in test [1] and > 60 µM (not active) in test [2]. As to `CCCCn1nc(C(=O)Nc2nc3c(s2)CCCC3)c2ccccc2c1=O`, the EC50 in test [1] is 1.73 µM (active); in test [2] it was > 60 µM (inconclusive). Take `CCOC(=O)c1c(NC(=O)CSc2nnc(-c3ccncc3)n2Cc2ccco2)sc(C)c1C`: the EC50 in test [1] was 2.9 µM (active); in test [2], > 60 µM (not active). Turning to `Cc1ccc(N2CCN(c3ccc(C)cc3)C2c2cccnc2)cc1`, the concentration for a half-maximal effect (EC50) was 0.768 µM (active) in test [1] and > 60 µM (not active) in test [2]. For `C=CCN=C(S)N1CCN(c2ncc3c(=O)c(C(=O)O)cn(CC)c3n2)CC1`, on Cytochrome P450 2C9, the AC50 is 0.224 µM (inconclusive). For `CN(CCNC(=O)C1CC(=O)N(c2ccc(F)c(Cl)c2)C1)Cc1ccccc1` (stereo unspecified), the EC50 in test [1] is 0.22 µM (active); in test [2], > 60 µM (not active). As to `CC1CCC(=C(C#N)c2nc(-c3cc4ccccc4oc3=O)cs2)CC1` (stereo unspecified), the 50% effective concentration (EC50) in test [3] was 0.106 µM (active).

For the compound `COc1ccc(-c2cc(-c3ccccc3)c(C#N)c(SCC(=O)Nc3ncc(C)s3)n2)cc1`, the results for the 50% effective concentration (EC50) in test [1] and in test [2] were > 60 µM (not active) and > 60 µM (inconclusive), respectively. As to `C/C(=N\NC(=S)Nc1cccc(C)c1)c1ccco1`, the EC50 in test [1] is 2.8 µM (active); in test [2], > 60 µM (not active). Turning to `Cc1nc(S(=O)(=O)N(C)c2ccccc2)c(C#N)c(C)c1Cl`, the AC50 at Cytochrome P450 2C9 is 17.8 µM (inconclusive).

For the compound `COc1ccc(/C=C(\NC(=O)c2ccccc2)C(=O)N/N=C/c2ccncc2)cc1`, the AC50 on Cytochrome P450 2C9 was 12.6 µM (active).
